Reference: patent publication US6133299A, “Methods for treating neurodegenerative diseases and disorders using N-(2,6-disubstituted aromatic)-N'-pyridinyl ureas and other anticonvulsant compounds” (Warner-Lambert Company, priority 1993, dated 2000)
Entries after “also recorded” stand apart in the source; their conditions may differ.

Experiments:
[1] = test system: Hippocampal Slices; assay: Recovery of synaptic activity (EPSP) in hippocampal slices after hypoxia-hypoglycemia (Example 4); assay type: cell-based, rat (male Wistar); settings: for recovery of EPSPs, overall effect: concentrations tested in Table 2
Protocol: Young male Wistar rats (150 to 250 g) were anesthetized with ketamine (200 mg/kg IP) and ether and were perfused transcardially with cold, oxygenated, low sodium-containing physiological buffer solution (252 mM sucrose, 3.5 mM KCl, 1.0 mM MgSO4, 20 mM CaC1, 26 mM NaHCO3, 1.25 mM NaH2 PO4, and 10 mM glucose) with 50 μM ketamine added. Brains were removed and hippocampi carefully excised. Hippocampi were sliced transversely at 450 μm and transferred into cold (4° C.) low-sodium buffer solution gassed with 95% O2, 5% CO2 at 31° C. After 45 minutes slices were transferred to oxygenated normal physiological solution (126 mM NaCl, 3.5 mM KCl, 1.0 mM MgSO4, 2.0 mM CaCl2, 20 mM NaHCO3, 1.25 mM NaH2 PO4, and 10 mM glucose) at 31° C. for at least 1 hour before experiments began. After preincubation, slices were transferred to a heated (36° C.), gassed incubation chamber where they were continuously superfused with gassed normal physiological solution. Evoked extracellular synaptic potentials (EPSPs) were obtained using glass micropipettes placed approximately 100 μm into the slice. Electrical stimulation was applied once per minute to the stratum radiatum by insulated paired nichrome wires (60 μm diameter). Stimuli consisted of 150 μA pulses lasting 0.4 msec. […] Data from a slice were used only if EPSP amplitude was greater than 2.0 mV before hypoxia-hypoglycemia.
(§1) Evoked potentials were recorded and analyzed with a digital computer interface. Experiments were started by recording for several minutes under normal conditions (95% O2, 5% CO2, 10 mM glucose). Then drug was added to the superfusion solution (or normal solution was continued in control experiments). After 10 minutes of drug superfusion, hypoxia-hypoglycemia was induced by switching to superfusion solution containing added drug with low glucose (2 mM) that was equilibrated with 95% N2 and 5% CO2. At the same time the slice chamber gas was switched to 95% N2 and 5% CO2. Hypoxia-hypoglycemia was continued for 12 minutes. After 12 minutes, 95% O2 and 10 mM glucose were returned to the slices and the superfusing solution. Following 15 minutes of reoxygenation, the experiment was ended. EPSPs were considered recovered if they returned to at least half of their original amplitude. The percentage of slices with recovered EPSPs were calculated for each condition.
This study was identical in design to Example 3 except that during the hypoxic period of 12 minutes, glucose was reduced from 10 mM to 2 mM rather than from 10 mM to zero as in Example 3.

[2] = test system: Hippocampal Slices; assay: Effect on synaptic potentials / presynaptic action potential in slices before hypoxia; assay type: cell-based, rat (male Wistar)
Protocol: Young male Wistar rats (150 to 250 g) were anesthetized with ketamine (200 mg/kg IP) and ether and were perfused transcardially with cold, oxygenated, low sodium-containing physiological buffer solution (252 mM sucrose, 3.5 mM KCl, 1.0 mM MgSO4, 20 mM CaC1, 26 mM NaHCO3, 1.25 mM NaH2 PO4, and 10 mM glucose) with 50 μM ketamine added. Brains were removed and hippocampi carefully excised. Hippocampi were sliced transversely at 450 μm and transferred into cold (4° C.) low-sodium buffer solution gassed with 95% O2, 5% CO2 at 31° C. After 45 minutes slices were transferred to oxygenated normal physiological solution (126 mM NaCl, 3.5 mM KCl, 1.0 mM MgSO4, 2.0 mM CaCl2, 20 mM NaHCO3, 1.25 mM NaH2 PO4, and 10 mM glucose) at 31° C. for at least 1 hour before experiments began. After preincubation, slices were transferred to a heated (36° C.), gassed incubation chamber where they were continuously superfused with gassed normal physiological solution. Evoked extracellular synaptic potentials (EPSPs) were obtained using glass micropipettes placed approximately 100 μm into the slice. […]
Evoked potentials were recorded and analyzed with a digital computer interface. […] The percentage of slices with recovered EPSPs were calculated for each condition.
Excitatory synaptic potential (EPSP) amplitude was measured before and during drug treatment in the 10-minute period preceding reduced oxygen and glucose. […]

[3] = test system: neuroprotective capabilities; assay: Neuroprotective capabilities in vitro (general statement); assay type: cell-based
[4] = test system: voltage-dependent sodium channels; settings: cited from earlier work
[5] = in vivo; cited from earlier work
[6] = test system: Hippocampal Slices; assay: Recovery of synaptic activity (EPSP) in hippocampal slices after hypoxia-hypoglycemia (Example 3); assay type: cell-based, rat (male Wistar); settings: for percentage of slices that recovered EPSPs: control approximately 5%
Protocol: An in vitro model with rat hippocampal brain slices exposed to hypoxia-hypoglycemia was used to simulate ischemia. Neuroprotection was measured by the recovery of excitatory postsynaptic potentials after reoxygenation.
Young male Wistar rats (150 to 250 g) were anesthetized with ketamine (200 mg/kg IP) and ether and were perfused transcardially with cold, oxygenated, low sodium-containing physiological buffer solution (252 mM sucrose, 3.5 mM KCl, 1.0 mM MgSO4, 20 mM CaC1, 26 mM NaHCO3, 1.25 mM NaH2 PO4, and 10 mM glucose) with 50 μM ketamine added. Brains were removed and hippocampi carefully excised. Hippocampi were sliced transversely at 450 μm and transferred into cold (4° C.) low-sodium buffer solution gassed with 95% O2, 5% CO2 at 31° C. After 45 minutes slices were transferred to oxygenated normal physiological solution (126 mM NaCl, 3.5 mM KCl, 1.0 mM MgSO4, 2.0 mM CaCl2, 20 mM NaHCO3, 1.25 mM NaH2 PO4, and 10 mM glucose) at 31° C. for at least 1 hour before experiments began. After preincubation, slices were transferred to a heated (36° C.), gassed incubation chamber where they were continuously superfused with gassed normal physiological solution. Evoked extracellular synaptic potentials (EPSPs) were obtained using glass micropipettes placed approximately 100 μm into the slice. Electrical stimulation was applied once per minute to the stratum radiatum by insulated paired nichrome wires (60 μm diameter). Stimuli consisted of 150 μA pulses lasting 0.4 msec. The 150 μA stimulus usually gave nearly a maximal EPSP (excitatory postsynaptic potential) amplitude. Data from a slice were used only if EPSP amplitude was greater than 2.0 mV before hypoxia-hypoglycemia.
as §1

[7] = test system: Neuronal/Glial Cortical Cultures; assay: Hypoxia-induced lactate dehydrogenase release (cell injury) in neuronal/glial cortical cultures; assay type: cell-based, rat (Sprague Dawley); settings: Rattus norvegicus, read-out: % Inh (percent inhibition of the release of lactate dehydrogenase in comparison to hypoxic control cultures)
Protocol: An assay was conducted to compare the inhibitory action of various compounds which are the subject of the present invention. The assay measured the oxygen deprivation-induced neuronal cell death from various cortical cultures. Lactate dehydrogenase (LDH) is a cytosolic enzyme that is only present in the extracellular medium if cell membranes rupture, indicating cell death. Therefore, LDH release into the culture medium is a convenient assay of cell death. The results of Table 3 indicate that each of the compounds tested decreased neuronal cell death from hypoxia in vitro.
The uteri of Sprague Dawley rats in their 18th day of fetal gestation were removed under halothane anesthesia and placed in a chilled bath of magnesium and calcium-free Hank's balanced salt solution (HBSS). Cortical brain hemispheres were removed from individual fetuses and digested in 0.1% trypsin in HBSS for 15 minutes at room temperature. Digested tissue was washed three times with HBSS then dissociated into a single cell suspension by trituration with a glass pipette. […] One hundred microliters of this cell suspension was pipetted into individual wells of 96-well tissue culture plates previously coated with poly-L-lysine, then stored in a humidified incubator (37° C., 3% CO2). Glial cell growth was stopped by the addition of 100 μL of 45% DME, 45% HAM F12, and 10% Horse serum (10/0 DME/F12) containing 15 μg/mL of 5-fluoro-2-deoxyuridine and 35 μg/mL of uridine, 3 days after the initial plating. Cultures were fed at 2- or 3-day intervals thereafter by replacing 100 μL of spent medium with an identical volume of fresh 10/0 DME/F12.
Sixteen-day-old cultures were prepared for experiments by removing growth medium from each culture well and rinsing once with 250 μL of Mg^++ -free HBSS containing 1.8 mM Ca^++ and 1 g/L D-glucose (0 Mg-HBSS) Control and test agent solutions, prepared using 0 Mg-HBSS medium, were dispensed in 50 μL aliquots into individual test wells (Total volume/well=50 μL). All liquid medium preparations to this point were equilibrated with […], 5% CO2. Plates were placed into a 37° C., humidified, triple-gas incubator with O2 and CO2 levels maintained at 1% and 10%, respectively. Plates were removed after 7.5 hours of oxygen deprivation and restored to normoxic conditions (20% O2 /10% CO2, 37° C.) following a 50 μL addition to each well of appropriate control or test agent solutions containing 1.8 mM Ca^++, 1.6 mM Mg^++, and 7.0 g/L D-glucose. Final medium concentrations of 1.8 mM Ca^++, 0.8 mM Mg^++, and 4 g/L D-glucose were present during the reoxygenation period.
Medium concentrations of lactate dehydrogenase (LDH), a cytosolic enzyme normally retained by cells but released upon cell death, were determined for each well following an additional 16.5-hour normoxic exposure period. Individual 25 μL medium specimens were collected from each well and placed into wells of a clean 96-well microtiter plate containing 225 μL of 0.1 M KPO4 buffer (pH=7.5 at 25° C.) and 30 μg NADH (reduced […] adenine dinucleotide). After 10-minute incubation at 37° C., 30 μL of 2.4 mM sodium pyruvate was added to each well and plates were gently shaken to mix solution. Plates were immediately placed into a Multiscan MCC/340 plate reader and scanned for […] (excitation at 340 nm) for 1 minute at 5-second intervals. A kinetic analysis of the change in medium absorbance resulting from shifts in NADH concentrations was used, in combination with factors to correct for temperature, light path, and volume adjustments to determine medium LDH concentrations (IU/mL). Normoxic control baseline LDH levels were subtracted from both hypoxic control and test agent values prior to determining test agent effectiveness in preventing oxygen deprivation-induced injury.

[8] = test system: cytokinin activity; settings: cited from earlier work
[9] = test system: neuronal damage from ischemia; settings: in vitro and in vivo; cited from earlier work
[10] = test system: calcium channels; settings: concentrations similar to those tested; cited from earlier work

CCN(CC)CC(=O)Nc1c(C)cccc1C [Lidocaine, lidocaine]
Number Slices Recovered / Number Slices Tested (≥50% EPSP amplitude recovery after reoxygenation) ([1]; 50 μM): 5/9 | Number Slices Recovered / Number Slices Tested (≥50% EPSP amplitude recovery after reoxygenation) ([1]; 200 μM): 9/10 | protection from loss of EPSPs ([1]; 200 μM): almost complete protection | recovery of EPSPs, overall effect [1]: improves recovery of EPSPs at both concentrations tested | recovery of EPSPs, overall effect ([1]; listed as lidocaine): enhanced recovery of EPSPs | effect on presynaptic action potential and EPSPs ([2]; 500 μM): reversibly reduced both presynaptic action potential and EPSPs | neuroprotective capabilities [3]: shown in vitro to have neuroprotective capabilities | action on voltage-dependent sodium channels [4]: more selective for sodium channels | peripheral hypotensive effects [5]: peripheral hypotensive effects

Cc1cccc(Cl)c1NC(=O)Nc1ccncc1 [N-(2-chloro-6-methylphenyl)-N'-4-pyridinyl urea]
Number Slices Recovered / Number Slices Tested (≥50% EPSP amplitude recovery after reoxygenation) ([6]; 0.5 μM): 0/8 | changes from hypoxia ([6]; 0.5 μM): not different from control treatments | Number Slices Recovered / Number Slices Tested (≥50% EPSP amplitude recovery after reoxygenation) ([6]; 2 μM): 3/8 | mean EPSP amplitude after hypoxia ([6]; 2 μM): near significance | protection / improved recovery of EPSPs ([6]; 2 μM and 20 μM): significant protection of hippocampal slices from irreversible loss of synaptic potentials; also recorded: improves recovery of EPSPs | percentage of slices that recovered EPSPs ([6]; 2 μM): 37% | Number Slices Recovered / Number Slices Tested (≥50% EPSP amplitude recovery after reoxygenation) ([6]; 20 μM): 9 out of 10 | mean EPSP amplitude after hypoxia ([6]; 20 μM): significant with a high degree of confidence; also recorded: almost complete recovery of EPSPs | protection from loss of EPSPs ([6]; 20 μM): almost complete protection from loss of EPSPs | percentage of slices that recovered EPSPs ([6]; 20 μM): 90% | Number Slices Recovered / Number Slices Tested (≥50% EPSP amplitude recovery after reoxygenation) ([6]; 20 μM, listed as Test drug): 9/10 | mean EPSP amplitude after hypoxia, overall effect ([6]; concentration-related, 0.5-20 μM): significantly increased the mean EPSP amplitude after hypoxia; also recorded: increased EPSP amplitude following hypoxia in a concentration-dependent manner | effect on EPSP / presynaptic action potential amplitude ([2]; concentrations used, before hypoxia): none of the concentrations tested reduced EPSP or presynaptic action potential amplitude | inhibition at 30 µM [7]: 101% | inhibition at 100 µM [7]: 80% | action on voltage-dependent sodium channels [4]: modulates voltage-dependent sodium channels of nerve cell membranes; also recorded: modulator of neuronal voltage-gated sodium ion channels

O=C(Nc1cccnc1)Nc1ccc(Cl)c(Cl)c1 [N-(3,4-dichlorophenyl)-N'-3-pyridinyl urea]
cytokinin activity [8]: show such activity

O=C(Nc1ccncc1)Nc1ccc(Cl)c(Cl)c1 [N-(3,4-dichlorophenyl)-N'-4-pyridinyl urea]
cytokinin activity [8]: show such activity

O=C1NC(=O)C(c2ccccc2)(c2ccccc2)N1 [Phenytoin, phenytoin]
Number Slices Recovered / Number Slices Tested (≥50% EPSP amplitude recovery after reoxygenation) ([1]; 5 μM): 0/8 | Number Slices Recovered / Number Slices Tested (≥50% EPSP amplitude recovery after reoxygenation) ([1]; 20 μM): 5/12 | Number Slices Recovered / Number Slices Tested (≥50% EPSP amplitude recovery after reoxygenation) ([1]; 50 μM): 3/9 | recovery of EPSPs, overall effect [1]: enhanced recovery of EPSPs | inhibition at 30 µM [7]: 78% | inhibition at 100 µM [7]: 82% | neuroprotective capabilities [3]: shown in vitro to have neuroprotective capabilities | effect on neuronal damage from ischemia [9]: preventing neuronal damage from ischemia both in vitro and in vivo | action on calcium channels [10]: blocks a variety of calcium channels
